# Test results published in patent publication US20250171459A1, “2-METHYL-4',5'-DIHYDROSPIRO[PIPERIDINE-4,7'-THIENO[2,3-C]PYRAN] DERIVATIVES AS INHIBITORS OF APOL1 AND METHODS OF USING SAME” (Vertex Pharmaceuticals Incorporated, priority 2022, published 2025).
# Molecular target: T1, APOL1 (Homo sapiens, UniProt O14791)
# T1 sequence (O14791 1-398 S342G/I384M): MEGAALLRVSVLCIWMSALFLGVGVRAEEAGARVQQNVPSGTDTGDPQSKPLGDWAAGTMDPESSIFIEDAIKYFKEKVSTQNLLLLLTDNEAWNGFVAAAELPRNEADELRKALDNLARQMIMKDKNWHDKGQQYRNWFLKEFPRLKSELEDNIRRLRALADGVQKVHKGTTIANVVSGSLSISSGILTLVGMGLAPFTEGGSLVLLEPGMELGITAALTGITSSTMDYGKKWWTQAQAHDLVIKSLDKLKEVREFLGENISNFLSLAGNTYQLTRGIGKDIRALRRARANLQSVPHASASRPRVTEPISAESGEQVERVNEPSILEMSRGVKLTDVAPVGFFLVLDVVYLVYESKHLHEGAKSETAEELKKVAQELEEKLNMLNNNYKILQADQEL
# Experiment: MultiTox-Fluor Multiplex Cytotoxicity Assay in tet-inducible APOL1 T-REx-HEK293 cells (cell rescue, ratio of dead to live cells)
# Type: cell-based
# Conditions: tet-inducible transgenic APOL1 T-REx-HEK293 cell lines, 50 ng/mL tet, 24 hours; read-out: IP50 (i.e., IC50 for cell proliferation)
# From the text: The MultiTox-Fluor Multiplex Cytotoxicity Assay is a single-reagent-addition, homogeneous, fluorescence assay that measures the number of live and dead cells simultaneously in culture wells. The assay measures cell viability and cytotoxicity by detecting two distinct protease activities. […] The substrate enters intact cells, where it is cleaved to generate a fluorescent signal proportional to the number of living cells. […] A ratio of dead to live cells is used to normalize data.
# The MultiTox reagent was added to each well and placed back in the incubator for an additional 30 minutes. The plate was read on the EnVision plate reader. A ratio of dead to live cells was used to normalize, and data was imported, analyzed, and fit using Genedata Screener (Basel, Switzerland) software. Data was normalized using percent of control, no tet (100% viability), and 50 ng/mL tet treated (0% viability), and fit using Smart Fit. The reagents, methods, and complete protocol for the MultiTox assay are described below.
# Cells were washed with DPBS and then trypsinized to dissociate from the flask. Media was used to quench the trypsin, cells were then pelleted at 200 g and resuspended in fresh cell assay media (DMEM, 2% Tet-free FBS, 2 mM L-glutamine, 100 Units/mL penicillin-streptomycin). […] The plates were then incubated at room temperature for one hour.
# Tetracycline is needed to induce APOL1 expression. 1 mg/mL tet stock in water was diluted to 250 ng/mL (5×) in cell assay media.
# Compounds were dispensed at 200 nL in DMSO. The final top concentration was 10 μM with a 10 point 3-fold dilution in duplicate in the MultiTox assay.
# 20 μL was transferred from the 5× tet plate to the ARP and mixed, then 5 μL of 5× tet and the compounds were transferred to the cell plate and mixed using the Bravo. The cell plate was placed in the humidified 37° C. 5% CO2 incubator for 24 hours.
# The MultiTox-Fluor Multiplex Cytotoxicity Assay was performed in accordance with the manufacturer's protocol. After cells were incubated with tet and compound for 24 hours, 25 μL of 1× MultiTox reagent was added to each well using the Multidrop dispenser; the plates were placed on a plate shaker (600 rpm) for 2 minutes, then centrifuged briefly and placed back in the 37° C. incubator for 30 minutes. The cell viability (excitation: 400 nm, emission: 486 nm) and cytotoxicity (excitation: 485 nm, emission: 535 nm) were read using the EnVision plate reader. A ratio of dead (cytotoxicity) to live (viability) cells was reported. Data was exported and analyzed in Genedata. Data was normalized using percent of control, no tet (100% viability), and 50 ng/mL tet treated (0% viability), and fit using Smart Fit settings in Genedata.
row,SMILES,IC50
1,C[C@H]1C[C@@]2(CCN1Cc1ccn(C)n1)OCCc1cc(CC(F)F)sc12 [Compound 578],< 100 nM
2,Cc1cc(CN2CC[C@]3(C[C@@H]2C)OC[C@H](O)c2cc(Cl)sc23)nn1C [Compound 781],500 to 1000 nM
3,CCc1cc2c(s1)CCO[C@@]21CCN(Cc2cn(CC3(CO)CCOC3)nn2)[C@@H](C)C1 (some centres unmarked) [Compound 106],100 to 500 nM
4,CCc1cc2c(s1)CCO[C@@]21CCN(Cc2cn(CC(CC)(CC)OC)nn2)[C@@H](C)C1 [Compound 97],< 100 nM
5,C[C@H]1C[C@@]2(CCN1Cc1cnn(CC(O)C3(O)CCOC3)c1)OC[C@@H](O)c1cc(C(F)(F)F)sc12 (some centres unmarked) [Compound 971],< 100 nM
6,COc1cc(OCC(N)=O)ccc1CN1CC[C@@]2(C[C@H]1C)OCCc1cc(Cl)sc12 [Compound 655],< 100 nM
7,CCc1cc2c(s1)CCO[C@@]21CCN(C[C@H]2C[C@@H](NC(=O)c3cnc(C)nc3)C2)[C@@H](C)C1 [Compound 329],100 to 500 nM
8,"C[C@H]1C[C@@]2(CCN1Cc1cn(CCS(C)(=O)=O)nn1)OCCc1sc(Br)cc12 [Compound 522, (2′S,4R)-2-bromo-2′-methyl-1′-[[1-(2-methylsulfonylethyl)triazol-4-yl]methyl]spiro[6,7-dihydrothieno[3,2-c]pyran-4,4′-piperidine]]",< 100 nM
9,"C[C@H]1C[C@@]2(CCN1Cc1cnn(C[C@@H](O)C(N)=O)c1)OCCc1c2sc(C(F)(F)F)c1CO [Compound 985, (2R)-2-hydroxy-3-[4-[[(2′S, 7R)-3-(hydroxymethyl)-2′-methyl-2-(trifluoromethyl)spiro[4,5-dihydrothieno[2,3-c]pyran-7,4′-piperidine]-1′-yl]methyl]pyrazol-1-yl]propanamide]",< 100 nM
10,CCc1cc2c(s1)CCOC21CCN(Cc2cn(CC(O)CS(C)(=O)=O)nn2)C(C)C1 (centres unmarked) [Compound 91],< 100 nM
11,CCc1cc2c(s1)CCO[C@@]21CCN(Cc2cn[nH]c2)[C@@H](C)C1 [Compound 265],< 100 nM
12,CCc1cc2c(s1)CCO[C@@]21CCN(Cc2cn(CC(C)(C)CCO)nn2)[C@@H](C)C1 [Compound 80],100 to 500 nM
13,CCc1cc2c(s1)CCO[C@@]21CCN(Cc2cn(Cc3cnc(C)cn3)nn2)[C@@H](C)C1 [Compound 32],< 100 nM
14,"C[C@H]1C[C@@]2(CCN1Cc1cnn(C[C@@H](O)C(C)(C)O)c1)OCCc1c2sc(C(F)(F)F)c1CO [Compound 888, (2R)-1-[4-[[(2′S, 7R)-3-(hydroxymethyl)-2′-methyl-2-(trifluoromethyl)spiro[4,5-dihydrothieno[2,3-c]pyran-7,4′-piperidine]-1′-yl]methyl]pyrazol-1-yl]-3-methyl-butane-2,3-diol]",< 100 nM
15,C[C@H]1C[C@@]2(CCN1Cc1cnn(CCS(C)(=O)=O)c1)OCCc1c2sc(Cl)c1CO [Compound 754],< 100 nM
16,C[C@H]1C[C@@]2(CCN1Cc1cccc(OCC(N)=O)c1)OCCc1cc(Cl)sc12 [Compound 656],100 to 500 nM
17,"C[C@H]1C[C@@]2(CCN1Cc1cnn(CCS(C)(=O)=O)c1)OCCc1cc(C3CC3)sc12 [Compound 1034, (2′S, 7R)-2-cyclopropyl-2′-methyl-1′-[[1-(2-methylsulfonylethyl)pyrazol-4-yl]methyl]spiro[4,5-dihydrothieno[2,3-c]pyran-7,4′-piperidine]]",< 100 nM
18,C[C@H]1C[C@@]2(CCN1Cc1cnn(C)c1)OCCc1cc(CC(F)F)sc12 [Compound 565],< 100 nM
19,CCc1cc2c(s1)CCOC21CCN(Cc2ccc(C(=O)NCCC(=O)N3CCCC3)nc2)CC1 [Compound 1049],< 100 nM
20,CCc1cc2c(s1)CCO[C@@]21CCN(Cc2cn(CC(CO)CC3CCOCC3)nn2)[C@@H](C)C1 (some centres unmarked) [Compound 121],< 100 nM
21,C[C@H]1C[C@@]2(CCN1Cc1cnn(CC3CC4(CCC4)C(=O)O3)c1)OCCc1c2sc(C(F)(F)F)c1CO (some centres unmarked) [Compound 982],< 100 nM

row,SMILES,IC50
1,CCc1cc2c(s1)CCOC21CCN(Cc2ccc(S(C)(=O)=O)cc2)CC1 [Compound 1148],500 to 1000 nM
2,"CCc1cc2c(s1)CCOC21CCN(Cc2cnn(C)c2)C(C)(C)C1 (centres unmarked) [Compound 498, 2-ethyl-2′,2′-dimethyl-1′-[(1-methylpyrazol-4-yl)methyl]spiro[6,7-dihydrothieno[3,2-c]pyran-4,4′-piperidine]]",500 to 1000 nM
3,CCc1cc2c(s1)CCO[C@@]21CCN(C[C@H]2C[C@@H](NS(=O)(=O)c3ccc(C#N)cc3)C2)[C@@H](C)C1 [Compound 391],< 100 nM
4,"CC(=O)N(C)C1CO[C@@]2(CCN(Cc3cnn(CCS(C)(=O)=O)c3)[C@@H](C)C2)c2sc(Cl)cc21 (stereo partly drawn) [Compound 857, N-[(2′S, 7R)-2-chloro-2′-methyl-1′-[[1-(2-methylsulfonylethyl)pyrazol-4-yl]methyl]spiro[4,5-dihydrothieno[2,3-c]pyran-7,4′-piperidine]-4-yl]-N-methyl-acetamide]",< 100 nM
5,C[C@H]1C[C@@]2(CCN1Cc1cnn(Cc3nnc[nH]3)c1)OCCc1c2sc(C(F)(F)F)c1CO [Compound 920],100 to 500 nM
6,CCc1cc2c(s1)CCO[C@@]21CCN(Cc2cn(CCc3c[nH]cn3)nn2)[C@@H](C)C1 [Compound 48],< 100 nM
7,CCc1cc2c(s1)CCO[C@@]21CCN(Cc2cn(CCc3cn(C)cn3)nn2)[C@@H](C)C1 [Compound 36],100 to 500 nM
8,CCc1cc2c(s1)CCOC21CCN(Cc2cn(CC(O)C(C)(C)O)nn2)C(C)C1 (centres unmarked) [Compound 124],< 100 nM
9,CCc1cc2c(s1)CCO[C@@]21CCN(Cc2cn(CCSCC(C)(C)O)nn2)[C@@H](C)C1 [Compound 24],< 100 nM
10,C[C@H]1C[C@@]2(CCN1Cc1ccc(N3CCCC3=O)cc1)OC[C@H](O)c1cc(Cl)sc12 [Compound 777],< 100 nM
11,"C[C@H]1C[C@@]2(CCN1Cc1cnn(CC(C)(O)C(N)=O)c1)OCCc1c2sc(C(F)(F)F)c1CO (stereo partly drawn) [Compound 989, 2-Hydroxy-3-[4-[[(2′S, 7R)-3-(hydroxymethyl)-2′-methyl-2-(trifluoromethyl)spiro[4,5-dihydrothieno[2,3-c]pyran-7,4′-piperidine]-1′-yl]methyl]pyrazol-1-yl]-2-methyl-propanamide]",< 100 nM
12,CCc1cc2c(s1)CCOC21CCN(Cc2ccc(NS(=O)(=O)C3CC3)cc2)CC1 [Compound 1163],100 to 500 nM
13,"Cc1c(Cl)sc2c1C(O)CO[C@@]21CCN(Cc2cnn(CCS(C)(=O)=O)c2)[C@@H](C)C1 (stereo partly drawn) [Compound 858, (2′S, 7R)-2-chloro-2′,3-dimethyl-1′-[[1-(2-methylsulfonylethyl)pyrazol-4-yl]methyl]spiro[4,5-dihydrothieno[2,3-c]pyran-7,4′-piperidine]-4-ol]",< 100 nM
14,"C[C@H]1C[C@@]2(CCN1C[C@H]1C[C@@H](NS(=O)(=O)CC#N)C1)OCCc1cc(CC(F)F)sc12 [Compound 549, 1-cyano-N-((1R,3s)-3-(((2S,4R)-2′-(2,2-difluoroethyl)-2-methyl-4′,5′-dihydrospiro[piperidine-4,7′-thieno[2,3-c]pyran]-1-yl)methyl)cyclobutyl)methanesulfonamide]",< 100 nM
15,CCc1cc2c(s1)CCO[C@@]21CCN(CC2(O)CCOCC2)[C@@H](C)C1 [Compound 235],100 to 500 nM
16,"CC(O)CN1CC[C@]2(C[C@@H]1C)OCCc1cc(CC(F)F)sc12 (stereo partly drawn) [Compound 613, 1-((2S,4R)-2′-(2,2-difluoroethyl)-2-methyl-4′,5′-dihydrospiro[piperidine-4,7′-thieno[2,3-c]pyran]-1-yl)propan-2-ol]",100 to 500 nM
17,C[C@H]1C[C@@]2(CCN1Cc1ncccc1F)OCCc1cc(Cl)sc12 [Compound 684],500 to 1000 nM
18,CCc1cc2c(s1)CCO[C@@]21CCN(C[C@H]2C[C@@H](NC(=O)C3(O)CC(O)C3)C2)[C@@H](C)C1 (some centres unmarked) [Compound 357],< 100 nM
19,CCc1cc2c(s1)CCO[C@@]21CCN(Cc2cnc(N[C@@H]3CCCC[C@H]3O)nc2)[C@@H](C)C1 [Compound 223],< 100 nM
20,CCc1cc2c(s1)CCO[C@@]21CCN(C[C@H]2C[C@@H](NC(=O)OCc3ccccc3Cl)C2)[C@@H](C)C1 [Compound 381],100 to 500 nM
